Source: US10519152B2, “Compounds and their use in treating cancer” (AstraZeneca AB, priority 2017, dated 2019)

Target: T1, Estrogen Receptor (ERα) in MCF-7 human ductal carcinoma breast cell line (Homo sapiens, UniProt P03372)
T1 construct: endogenous in cells; host or cells: MCF-7
T1 sequence (P03372 1-595): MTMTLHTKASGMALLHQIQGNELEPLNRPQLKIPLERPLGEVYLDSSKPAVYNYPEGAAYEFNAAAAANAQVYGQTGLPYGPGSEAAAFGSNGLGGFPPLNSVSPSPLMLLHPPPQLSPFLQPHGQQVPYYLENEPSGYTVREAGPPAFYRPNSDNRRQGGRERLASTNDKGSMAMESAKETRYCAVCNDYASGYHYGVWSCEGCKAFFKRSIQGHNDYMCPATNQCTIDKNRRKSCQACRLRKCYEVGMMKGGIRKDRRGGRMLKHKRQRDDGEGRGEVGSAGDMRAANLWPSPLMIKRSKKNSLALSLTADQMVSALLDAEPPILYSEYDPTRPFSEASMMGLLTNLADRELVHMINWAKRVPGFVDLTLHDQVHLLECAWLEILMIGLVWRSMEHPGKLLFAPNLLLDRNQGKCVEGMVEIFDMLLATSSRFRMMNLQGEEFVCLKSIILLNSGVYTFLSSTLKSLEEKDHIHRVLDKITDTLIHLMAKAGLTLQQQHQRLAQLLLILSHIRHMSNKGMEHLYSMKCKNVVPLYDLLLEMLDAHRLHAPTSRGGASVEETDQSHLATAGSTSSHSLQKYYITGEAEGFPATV
Experiment: MCF-7 ER degradation assay (cell based immuno-fluorescence)
Settings: MCF-7 cells; for ER degradation ≥ 90% at 0.3 μM: ER degradation by fulvestrant at 0.3 μM is defined as 100%; for DC50: 18-22 hours incubation, 50% reduction of ERα expression, single experiment or average of two or more, read-out: MCF-7 ER degradation IC50
Outline: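 MCF-7 human ductal carcinoma breast cells were seeded at 3.75×10^4 cells per mL (40 μL per well) in 384 well plates with phenol red free DMEM containing 2 mM L-Glutamine and 5% (v/v) Charcoal/Dextran treated foetal calf serum. After overnight culture, compounds were acoustically dispensed, incubated 18-22 hours, then cells were formaldehyde-fixed and immunostained for ERα.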

Structure (SMILES)	ER degradation ≥ 90% at 0.3 μM	DC50
Cc1ncsc1-c1ccc(CNC(=O)[C@@H]2C[C@@H](O)CN2C(=O)[C@@H](NC(=O)COCCCCCN(CCOc2cc(F)c([C@@H]3c4[nH]c5ccccc5c4C[C@@H](C)N3CC(C)(C)F)c(F)c2)C(=O)OCc2ccccc2)C(C)(C)C)cc1 [Example 45, Benzyl (2-(3,5-difluoro-4-((1R,3R)-2-(2-fluoro-2-methylpropyl)-3-methyl-2,3,4,9-tetrahydro-1H-pyrido[3,4-b]indol-1-yl)phenoxy)ethyl)(5-(2-(((S)-1-((2S,4R)-4-hydroxy-2-((4-(4-methylthiazol-5-yl)benzyl)carbamoyl)pyrrolidin-1-yl)-3,3-dimethyl-1-oxobutan-2-yl)amino)-2-oxoethoxy)pentyl)carbamate]	••	12 nM
Cc1ncsc1-c1ccc(CNC(=O)[C@@H]2C[C@@H](O)CN2C(=O)[C@@H](NC(=O)CCCOc2ccc(COc3cc(F)c([C@@H]4c5[nH]c6ccccc6c5C[C@@H](C)N4CC(C)(C)F)c(F)c3)nc2)C(C)(C)C)cc1 [Example 161, (2S,4R)-1-((S)-2-(4-((6-((3,5-Difluoro-4-((1R,3R)-2-(2-fluoro-2-methylpropyl)-3-methyl-2,3,4,9-tetrahydro-1H-pyrido[3,4-b]indol-1-yl)phenoxy)methyl)pyridin-3-yl)oxy)butanamido)-3,3-dimethylbutanoyl)-4-hydroxy-N-(4-(4-methylthiazol-5-yl)benzyl)pyrrolidine-2-carboxamide]	•	1.2 nM
Cc1ncsc1-c1ccc(CNC(=O)C2CC(O)CN2C(=O)C(NC(=O)COCCOc2cc(F)c(C3c4[nH]c5ccccc5c4CC(C)N3CC(C)(C)F)c(F)c2)C(C)(C)C)cc1 [Example 40, (2S,4R)-1-((S)-2-(2-(2-(3,5-Difluoro-4-((1R,3R)-2-(2-fluoro-2-methylpropyl)-3-methyl-2,3,49-tetrahydro-1H-pyrido[3,4-b]indol-1-yl)phenoxy)ethoxy)acetamido)-3,3-dimethylbutanoyl)-4-hydroxy-N-(4-(4-methylthiazol-5-yl)benzyl)pyrrolidine-2-carboxamide]	•	0.6 nM
Cc1ncsc1-c1ccc(CNC(=O)[C@@H]2C[C@@H](O)CN2C(=O)[C@@H](NC(=O)COCCCCC(=O)N(C)CCOc2cc(F)c([C@@H]3c4[nH]c5ccccc5c4C[C@@H](C)N3CC(C)(C)F)c(F)c2)C(C)(C)C)cc1 [Example 143, (2S,4R)-1-((S)-2-(2-((5-((2-(3,5-Difluoro-4-((1R,3R)-2-(2-fluoro-2-methylpropyl)-3-methyl-2,3,4,9-tetrahydro-1H-pyrido[3,4-b]indol-1-yl)phenoxy)ethyl)(methyl)amino)-5-oxopentyl)oxy)acetamido)-3,3-dimethylbutanoyl)-4-hydroxy-N-(4-(4-methylthiazol-5-yl)benzyl)pyrrolidine-2-carboxamide]	••	0.2 nM
Cc1ncsc1-c1ccc(CNC(=O)[C@@H]2C[C@@H](O)CN2C(=O)[C@@H](NC(=O)C(F)(F)OCCCCCCOc2cc(F)c([C@@H]3c4[nH]c5ccccc5c4C[C@@H](C)N3CC(C)(C)F)c(F)c2)C(C)(C)C)cc1 [Example 116, (2S,4R)-1-((S)-2-(2-((6-(3,5-Difluoro-4-((1R,3R)-2-(2-fluoro-2-methylpropyl)-3-methyl-2,3,4,9-tetrahydro-1H-pyrido[3,4-b]indol-1-yl)phenoxy)hexyl)oxy)-2,2-difluoroacetamido)-3,3-dimethylbutanoyl)-4-hydroxy-N-(4-(4-methylthiazol-5-yl)benzyl)pyrrolidine-2-carboxamide]	•	5.3 nM
COC(=O)[C@@H](C)CN1[C@H](c2c(F)cc(OCCOCCOCCOCC(=O)N[C@H](C(=O)N3C[C@H](O)C[C@H]3C(=O)NCc3ccc(-c4scnc4C)cc3)C(C)(C)C)cc2F)c2[nH]c3ccccc3c2C[C@H]1C [Example 29]	••	2.4 nM
Cc1ncsc1-c1ccc(CNC(=O)[C@@H]2C[C@@H](O)CN2C(=O)[C@@H](NC(=O)COCCCOCCCCCOc2cc(F)c([C@@H]3c4[nH]c5ccccc5c4C[C@@H](C)N3CC(C)(C)F)c(F)c2)C(C)(C)C)cc1 [Example 138, (2S,4R)-1-((S)-2-(2-(3-((5-(3,5-Difluoro-4-((R,3R)-2-(2-fluoro-2-methylpropyl)-3-methyl-2,3,4,9-tetrahydro-1H-pyrido[3,4-b]indol-1-yl)phenoxy)pentyl)oxy)propoxy)acetamido)-3,3-dimethylbutanoyl)-4-hydroxy-N-(4-(4-methylthiazol-5-yl)benzyl)pyrrolidine-2-carboxamide]	••	1.1 nM
Cc1ncsc1-c1ccc(CNC(=O)[C@@H]2C[C@@H](O)CN2C(=O)[C@@H](NC(=O)COCc2ccnc(COc3cc(F)c([C@@H]4c5[nH]c6ccccc6c5C[C@@H](C)N4CC(C)(C)F)c(F)c3)c2)C(C)(C)C)cc1 [Example 134, (2S,4R)-1-((S)-2-(2-((2-((3,5-Difluoro-4-((1R,3R)-2-(2-fluoro-2-methylpropyl)-3-methyl-2,3,4,9-tetrahydro-1H-pyrido[3,4-b]indol-1-yl)phenoxy)methyl)pyridin-4-yl)methoxy)acetamido)-3,3-dimethylbutanoyl)-4-hydroxy-N-(4-(4-methylthiazol-5-yl)benzyl)pyrrolidine-2-carboxamide]	•	0.5 nM
Cc1ncsc1-c1ccc(CNC(=O)[C@@H]2C[C@@H](O)CN2C(=O)[C@@H](NC(=O)COCCOCCCCOc2cc(F)c([C@@H]3c4[nH]c5ccccc5c4C[C@@H](C)N3CC(C)(C)F)c(F)c2)C(C)(C)C)cc1 [Example 128, (2S,4R)-1-((S)-2-(2-(2-(4-(3,5-Difluoro-4-((1R,3R)-2-(2-fluoro-2-methylpropyl)-3-methyl-2,3,4,9-tetrahydro-1H-pyrido[3,4-b]indol-1-yl)phenoxy)butoxy)ethoxy)acetamido)-3,3-dimethylbutanoyl)-4-hydroxy-N-(4-(4-methylthiazol-5-yl)benzyl)pyrrolidine-2-carboxamide]	••	0.6 nM
Cc1ncsc1-c1ccc([C@H](C)NC(=O)[C@@H]2C[C@@H](O)CN2C(=O)[C@@H](NC(=O)C(F)(F)OCCCOCCCOc2cc(F)c([C@@H]3c4[nH]c5ccccc5c4C[C@@H](C)N3CC(C)(C)F)c(F)c2)C(C)(C)C)cc1 [Example 120, (2S,4R)-1-((S)-2-(2-(3-(3-(3,5-Difluoro-4-((1R,3R)-2-(2-fluoro-2-methylpropyl)-3-methyl-2,3,4,9-tetrahydro-1H-pyrido[3,4-b]indol-1-yl)phenoxy)propoxy)propoxy)-2,2-difluoroacetamido)-3,3-dimethylbutanoyl)-4-hydroxy-N—((S)-1-(4-(4-methylthiazol-5-yl)phenyl)ethyl)pyrrolidine-2-carboxamide]	••	1.6 nM
Cc1ncsc1-c1ccc(CNC(=O)[C@@H]2C[C@@H](O)CN2C(=O)[C@@H](NC(=O)COCCCC2CN(CCOc3cc(F)c([C@@H]4c5[nH]c6ccccc6c5C[C@@H](C)N4CC(C)(C)F)c(F)c3)C2)C(C)(C)C)cc1 [Example 47, (2S,4R)-1-((S)-2-(2-(3-(1-(2-(3,5-difluoro-4-((1R,3R)-2-(2-fluoro-2-methylpropyl)-3-methyl-2,3,4,9-tetrahydro-1H-pyrido[3,4-b]indol-1-yl)phenoxy)ethyl)azetidin-3-yl)propoxy)acetamido)-3,3-dimethylbutanoyl)-4-hydroxy-N-(4-(4-methylthiazol-5-yl)benzyl)pyrrolidine-2-carboxamide]	•	0.6 nM
Cc1ncsc1-c1ccc([C@H](C)NC(=O)[C@@H]2C[C@@H](O)CN2C(=O)[C@@H](NC(=O)COCCOCCCCCOc2cc(F)c([C@@H]3c4[nH]c5ccccc5c4C[C@@H](C)N3CC(F)(F)F)c(F)c2)C(C)(C)C)cc1 [Example 140, (2S,4R)-1-((S)-2-(2-(2-((5-(3,5-Difluoro-4-((1R,3R)-3-methyl-2-(2,2,2-trifluoroethyl)-2,3,4,9-tetrahydro-1H-pyrido[3,4-b]indol-1-yl)phenoxy)pentyl)oxy)ethoxy)acetamido)-3,3-dimethylbutanoyl)-4-hydroxy-N—((S)-1-(4-(4-methylthiazol-5-yl)phenyl)ethyl)pyrrolidine-2-carboxamide]	••	0.6 nM
Cc1ncsc1-c1ccc(CNC(=O)[C@@H]2C[C@@H](O)CN2C(=O)[C@@H](NC(=O)CCCCCOCCCCOc2cc(F)c([C@@H]3c4[nH]c5ccccc5c4C[C@@H](C)N3CC(C)(C)F)c(F)c2)C(C)(C)C)cc1 [Example 109, (2S,4R)-1-((S)-2-(6-(4-(3,5-difluoro-4-((1R,3R)-2-(2-fluoro-2-methylpropyl)-3-methyl-2,3,49-tetrahydro-1H-pyrido[3,4-b]indol-1-yl)phenoxy)butoxy)hexanamido)-3,3-dimethylbutanoyl)-4-hydroxy-N-(4-(4-methylthiazol-5-yl)benzyl)pyrrolidine-2-carboxamide]	••	1 nM
